The values that follow are results of earlier work, collected in US20040048853A1, “Compounds, compositions, and methods” (priority 2002, published 2004).

In this series the test system is A549 cells.
As usually defined, the GI50 is the concentration at which growth is held to half of that of the control. As for `COc1cccc2c1C(=O)c1c(O)c3c(c(O)c1C2=O)C[C@@](O)(C(=O)CO)C[C@@H]3O[C@H]1C[C@H](N)[C@H](O)[C@H](C)O1` [doxorubicin], the GI50 was 63 nM.
For `O=c1[nH]cc(F)c(=O)[nH]1` [5-fluorouracil], the GI50 is 1000 nM.
Turning to `NC(=O)NO` [hydroxyurea], the GI50 is 500000 nM.
In the case of `CC(=O)O[C@H]1C(=O)[C@@]2(C)[C@H]([C@H](OC(=O)c3ccccc3)[C@]3(O)C[C@H](OC(=O)[C@H](O)[C@@H](NC(=O)c4ccccc4)c4ccccc4)C(C)=C1C3(C)C)[C@]1(OC(C)=O)CO[C@@H]1C[C@@H]2O` [paclitaxel], the GI50 was 4 nM.
